Reference: patent US8957219B2, “Acetic acid amide derivative having inhibitory activity on endothelial lipase” (Shionogi & Co., Ltd., priority 2008, dated 2015)

target: human endothelial lipase (EL) (Homo sapiens (Human), UniProt Q9Y5X9); experiment: Human endothelial lipase (EL) inhibitory activity using human HDL; format: biochemical; details: human HDL 2 mg/ml, 4-hour reaction at 37° C., NEFA readout
Method: Evaluation Method of Human Endothelial Lipase (EL) Inhibitory Activity Using Human High-Density Lipoprotein (HDL)
After the present compound dissolved in DMSO was added to become 0.5% DMSO to the reaction buffer consisting of 20 mM tris hydrochloric acid (pH7.4), bovine serum albumin (0.5%), calcium chloride (4 mM), sodium chloride (150 mM) and human HDL (2 mg/ml), the EL enzyme was added (total volume was 20 μl).
After 4-hour reaction at 37° C., non-esterified fatty acid (NEFA) generated from HDL by EL was measured with a commercially available assay kit and the amount of NEFA was used as an index of enzyme activity.

human endothelial lipase (EL), sequence (Q9Y5X9 21-500): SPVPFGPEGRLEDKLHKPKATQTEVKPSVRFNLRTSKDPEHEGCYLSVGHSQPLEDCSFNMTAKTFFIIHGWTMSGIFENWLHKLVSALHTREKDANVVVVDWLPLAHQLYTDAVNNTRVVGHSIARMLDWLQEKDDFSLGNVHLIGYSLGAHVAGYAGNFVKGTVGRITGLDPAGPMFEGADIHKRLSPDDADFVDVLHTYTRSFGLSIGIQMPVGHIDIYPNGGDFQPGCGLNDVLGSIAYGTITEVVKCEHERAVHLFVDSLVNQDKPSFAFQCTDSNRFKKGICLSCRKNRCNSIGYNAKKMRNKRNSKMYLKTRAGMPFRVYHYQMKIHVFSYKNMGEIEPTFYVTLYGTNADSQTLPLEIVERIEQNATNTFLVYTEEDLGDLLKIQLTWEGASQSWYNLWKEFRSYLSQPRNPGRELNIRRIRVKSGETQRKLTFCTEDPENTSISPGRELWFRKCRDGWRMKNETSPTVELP

Row | SMILES | IC50 [nM]
1 | O=C(Cc1nc2ccc(-c3ccccc3)cc2s1)NCc1cccc(C(=O)O)c1 [II-1-1] | 230
2 | COCC(O)CNC(=O)Cc1nc2ccc(-c3ccccc3)cc2s1 (stereo not drawn) [II-1-190] | 2100
3 | O=C(Cc1nc2ccc(-c3ccccc3)cc2s1)NCc1nc(C(=O)O)cs1 [II-1-246] | 280
4 | N#CCNC(=O)CNC(=O)Cc1nc2ccc(-c3ccccc3)cc2s1 [II-2-1] | 110
5 | COc1cc2nc(CC(=O)NCC(=O)NCC#N)sc2cc1-c1ccccc1 [II-2-144] | 29
6 | N#CCNC(=O)CNC(=O)Cc1nc2cc(-c3ccc(OC(F)(F)F)cc3)ccc2s1 [II-2-291] | 56

Further compounds by falling IC50, results first:

Row | IC50 [nM] | SMILES
7 | 1300 | CN(C)C(=O)c1cccc(CNC(=O)Cc2nc3ccc(-c4ccccc4)cc3s2)c1 [II-1-17]
8 | 560 | NS(=O)(=O)c1cccc(CNC(=O)Cc2nc3ccc(-c4ccccc4)cc3s2)c1 [II-1-11]
9 | 290 | O=C(Cc1nc2cc(-c3cccc(C(F)(F)F)c3)ccc2s1)NCc1cccc(C(=O)O)c1 [II-1-202]
10 | 92 | CC(O)CNC(=O)CNC(=O)Cc1nc2ccc(-c3ccccc3)cc2s1 (stereo not drawn) [II-2-131]
11 | 32 | C#CCNC(=O)CNC(=O)Cc1nc2ccc(-c3ccccc3)cc2s1 [II-2-211]
12 | 29 | N#CC1(NC(=O)CNC(=O)Cc2nc3ccc(-c4ccccc4)cc3s2)CC1 [II-2-67]
